For one assay, the system named is A2780 cells. Kind of assay: In-vitro cell proliferation assay (SRB), A2780 cells. Particulars: Homo sapiens, A2780, 72 h, A2780 cells, 72 hours, read-out: A2780 IC50. It counts as cell-based. An outline of the steps:
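Proliferation is assessed by sulforhodamine B staining following a 72-hour incubation with compound dilutions containing 0.1% DMSO.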

Another assay has as its target T1, NAMPT (Homo sapiens, UniProt P43490).
T1 construct: His tag; host or cells: E. coli
Kind of assay: Biochemical inhibition assay: NAMPT enzymatic reaction, NMN quantified by mass spectrometry. Particulars: read-out: Biochem IC50. The method, boiled down:
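Inhibition of E. coli-expressed His-tagged human NAMPT, measured as NMN formation by mass spectrometry after a 30 min room-temperature reaction containing 1 μM NAM, 100 μM PRPP and 2.5 mM ATP.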

Where two headings read alike, the source gives them in different places.

The values that follow come from patent publication US12336981B2, “Compounds and compositions for the inhibition of NAMPT” (Valo Health, Inc., priority 2010, dated 2025).

T1 sequence (P43490 whole entry): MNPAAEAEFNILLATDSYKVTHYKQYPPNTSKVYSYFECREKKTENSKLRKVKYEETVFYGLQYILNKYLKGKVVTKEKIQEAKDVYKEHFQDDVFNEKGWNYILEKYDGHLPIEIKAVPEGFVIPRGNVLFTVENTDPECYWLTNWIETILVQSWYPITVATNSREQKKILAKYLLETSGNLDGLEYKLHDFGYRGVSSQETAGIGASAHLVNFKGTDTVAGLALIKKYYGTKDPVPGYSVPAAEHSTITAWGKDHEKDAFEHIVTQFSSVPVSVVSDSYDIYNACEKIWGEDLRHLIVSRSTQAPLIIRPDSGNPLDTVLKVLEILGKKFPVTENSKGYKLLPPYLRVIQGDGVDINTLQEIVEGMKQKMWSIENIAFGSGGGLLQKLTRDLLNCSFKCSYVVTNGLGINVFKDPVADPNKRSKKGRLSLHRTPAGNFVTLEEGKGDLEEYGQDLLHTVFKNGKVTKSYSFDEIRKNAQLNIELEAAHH

For the compound `Cc1cc(Cl)cnc1S(=O)(=O)c1ccc(CNC(=O)c2cnc3nccn3c2)cc1` [N-{[4-(5-chloro-3-methylpyridine-2-sulfonyl)phenyl]methyl}imidazo[1,2-a]pyrimidine-6-carboxamide], the IC50 in the assay with A2780 cells (SRB) worked out at 22 nM; at NAMPT (NAMPT enzymatic assay), 2.2 nM.
Turning to `Cc1cc(Cl)cnc1S(=O)(=O)c1ccc(CNC(=O)c2cc3ccncc3s2)cc1` [N-{[4-(5-chloro-3-methylpyridine-2-sulfonyl)phenyl]methyl}thieno[2,3-c]pyridine-2-carboxamide], the IC50 came out at 7.2 nM in the assay on A2780 cells (SRB) and 3.9 nM at NAMPT (NAMPT enzymatic assay).
With `O=C(NCc1ccc(S(=O)(=O)c2cncc(Cl)c2)cc1)c1cnc2[nH]ncc2c1` [N-{[4-(5-chloropyridine-3-sulfonyl)phenyl]methyl}-1H-pyrazolo[3,4-b]pyridine-5-carboxamide], the IC50 was determined as 6.2 nM in the assay on A2780 cells (SRB) and 23.8 nM on NAMPT (NAMPT enzymatic assay).
Consider `O=C(NCc1ccc(S(=O)(=O)c2cncc(Cl)c2)cc1)c1cc2cnccc2[nH]1` [N-{[4-(5-chloropyridine-3-sulfonyl)phenyl]methyl}-1H-pyrrolo[3,2-c]pyridine-2-carboxamide], for which the results for the IC50 in the assay on A2780 cells (SRB) and on NAMPT (NAMPT enzymatic assay) were 3.6 nM and 20 nM, respectively.
For the compound `Cc1nc(S(=O)(=O)c2ccc(CNC(=O)c3cc4ccncc4o3)cc2)ccc1F` [N-{[4-(5-fluoro-6-methylpyridine-2-sulfonyl)phenyl]methyl}furo[2,3-c]pyridine-2-carboxamide], the IC50 is 12.4 nM with A2780 cells (SRB) and 6.2 nM on NAMPT (NAMPT enzymatic assay).
In the case of `Cc1nc(S(=O)(=O)c2ccc(CNC(=O)c3cc4ccncc4s3)cc2)ccc1F` [N-{[4-(5-fluoro-6-methylpyridine-2-sulfonyl)phenyl]methyl}thieno[2,3-c]pyridine-2-carboxamide], the IC50 in the assay on A2780 cells (SRB) is 7.1 nM; at NAMPT (NAMPT enzymatic assay), 8.3 nM.
With `O=C(NCc1ccc(S(=O)(=O)c2cncc(F)c2)cc1)c1cnc2[nH]ncc2c1` [N-{[4-(5-fluoropyridine-3-sulfonyl)phenyl]methyl}-1H-pyrazolo[3,4-b]pyridine-5-carboxamide], the IC50 in the assay on A2780 cells (SRB) came out at 25.4 nM; on NAMPT (NAMPT enzymatic assay), 79.2 nM.
The matching figures for `O=C(NCc1ccc(S(=O)(=O)c2cncc(F)c2)cc1)c1cc2cnccc2[nH]1` [N-{[4-(5-fluoropyridine-3-sulfonyl)phenyl]methyl}-1H-pyrrolo[3,2-c]pyridine-2-carboxamide]: 13.6 nM and 71.3 nM.
As for `O=C(NCc1ccc(S(=O)(=O)c2cncc(F)c2)cc1)c1ccc2nccn2c1` [N-{[4-(5-fluoropyridine-3-sulfonyl)phenyl]methyl}imidazo[1,2-a]pyridine-6-carboxamide], the IC50 in the assay with A2780 cells (SRB) was 13.7 nM; on NAMPT (NAMPT enzymatic assay) it was 27.8 nM.
As for `O=C(NCc1ccc(S(=O)(=O)c2cncc(F)c2)cc1)c1cnc2nccn2c1` [N-{[4-(5-fluoropyridine-3-sulfonyl)phenyl]methyl}imidazo[1,2-a]pyrimidine-6-carboxamide], the IC50 with A2780 cells (SRB) was 56.4 nM; at NAMPT (NAMPT enzymatic assay) it was 6.7 nM.
With `O=C(NCc1ccc(S(=O)(=O)c2cncc(F)c2)cc1)c1cc2ccncc2s1` [N-{[4-(5-fluoropyridine-3-sulfonyl)phenyl]methyl}thieno[2,3-c]pyridine-2-carboxamide], the figures for the IC50 in the assay on A2780 cells (SRB) and on NAMPT (NAMPT enzymatic assay) were 6.4 nM and 9.7 nM, respectively.
For the compound `COc1ccc(S(=O)(=O)c2ccc(CNC(=O)c3cc4ccncc4o3)cc2)nc1` [N-{[4-(5-methoxypyridine-2-sulfonyl)phenyl]methyl}furo[2,3-c]pyridine-2-carboxamide], the figures for the IC50 in the assay on A2780 cells (SRB) and at NAMPT (NAMPT enzymatic assay) were 31.6 nM and 7.9 nM, respectively.
The matching figures for `COc1ccc(S(=O)(=O)c2ccc(CNC(=O)c3ccc4nccn4c3)cc2)nc1` [N-{[4-(5-methoxypyridine-2-sulfonyl)phenyl]methyl}imidazo[1,2-a]pyridine-6-carboxamide]: 17.3 nM and 22.9 nM.
Regarding `COc1ccc(S(=O)(=O)c2ccc(CNC(=O)c3cc4ccncc4s3)cc2)nc1` [N-{[4-(5-methoxypyridine-2-sulfonyl)phenyl]methyl}thieno[2,3-c]pyridine-2-carboxamide], the IC50 in the assay on A2780 cells (SRB) was determined as 19.3 nM; at NAMPT (NAMPT enzymatic assay) it was 7.1 nM.
On to `COc1cncc(S(=O)(=O)c2ccc(CNC(=O)c3cnc4[nH]ncc4c3)cc2)c1` [N-{[4-(5-methoxypyridine-3-sulfonyl)phenyl]methyl}-1H-pyrazolo[3,4-b]pyridine-5-carboxamide], for which the figures for the IC50 in the assay with A2780 cells (SRB) and at NAMPT (NAMPT enzymatic assay) were 16.7 nM and 41.4 nM, respectively.
The matching figures for `COc1cncc(S(=O)(=O)c2ccc(CNC(=O)c3ccc4nccn4c3)cc2)c1` [N-{[4-(5-methoxypyridine-3-sulfonyl)phenyl]methyl}imidazo[1,2-a]pyridine-6-carboxamide]: 3.4 nM and 9 nM.
Regarding `COc1cncc(S(=O)(=O)c2ccc(CNC(=O)c3cnc4nccn4c3)cc2)c1` [N-{[4-(5-methoxypyridine-3-sulfonyl)phenyl]methyl}imidazo[1,2-a]pyrimidine-6-carboxamide], the results for the IC50 in the assay with A2780 cells (SRB) and on NAMPT (NAMPT enzymatic assay) were 25.8 nM and 1.6 nM, respectively.
The matching figures for `COc1cncc(S(=O)(=O)c2ccc(CNC(=O)c3cc4ccncc4s3)cc2)c1` [N-{[4-(5-methoxypyridine-3-sulfonyl)phenyl]methyl}thieno[2,3-c]pyridine-2-carboxamide]: 1.6 nM and 9 nM.
The matching figures for `Cc1cncc(S(=O)(=O)c2ccc(CNC(=O)c3ccc4nccn4c3)cc2)c1` [N-{[4-(5-methylpyridine-3-sulfonyl)phenyl]methyl}imidazo[1,2-a]pyridine-6-carboxamide]: 7.1 nM and 36.8 nM.
The matching figures for `Cc1cncc(S(=O)(=O)c2ccc(CNC(=O)c3cnc4nccn4c3)cc2)c1` [N-{[4-(5-methylpyridine-3-sulfonyl)phenyl]methyl}imidazo[1,2-a]pyrimidine-6-carboxamide]: 12.4 nM and 2.2 nM.
`Cc1cncc(S(=O)(=O)c2ccc(CNC(=O)c3cc4ccncc4s3)cc2)c1` [N-{[4-(5-methylpyridine-3-sulfonyl)phenyl]methyl}thieno[2,3-c]pyridine-2-carboxamide]: the IC50 in the assay with A2780 cells (SRB) worked out at 2.5 nM; on NAMPT (NAMPT enzymatic assay) it was 6 nM.
The matching figures for `Cc1ccc(S(=O)(=O)c2ccc(CNC(=O)c3cnc4[nH]ncc4c3)cc2)s1` [N-{[4-(5-methylthiophene-2-sulfonyl)phenyl]methyl}-1H-pyrazolo[3,4-b]pyridine-5-carboxamide]: 34.7 nM and 22.3 nM.
In the case of `Cc1ccc(S(=O)(=O)c2ccc(CNC(=O)c3cc4cnccc4[nH]3)cc2)s1` [N-{[4-(5-methylthiophene-2-sulfonyl)phenyl]methyl}-1H-pyrrolo[3,2-c]pyridine-2-carboxamide], the results for the IC50 with A2780 cells (SRB assay) and at NAMPT (NAMPT enzymatic reaction) were 13 nM and 7 nM, respectively.
The matching figures for `Cc1ccc(S(=O)(=O)c2ccc(CNC(=O)c3cc4ccncc4s3)cc2)s1` [N-{[4-(5-methylthiophene-2-sulfonyl)phenyl]methyl}thieno[2,3-c]pyridine-2-carboxamide]: 7.7 nM and 5 nM.
As for `COc1ccc2cc(S(=O)(=O)c3ccc(CNC(=O)c4cc5cnccc5[nH]4)cc3)ccc2c1` [N-{[4-(6-methoxynaphthalene-2-sulfonyl)phenyl]methyl}-1H-pyrrolo[3,2-c]pyridine-2-carboxamide], the IC50 in the assay with A2780 cells (SRB) is 5.1 nM; at NAMPT (NAMPT enzymatic assay), 9.9 nM.

As a reminder, the IC50 is the concentration at which inhibition is half-maximal.
